Data published in patent US20230085307A1, “PYRIDAZINONE COMPOUND AND HERBICIDE” (NISSAN CHEMICAL CORPORATION, priority 2019, published 2023).

Assays:
late watergrass = test: Test Example 1: herbicidal activity, application before weed generation under submerged conditions (Table 16, symbol A); assay type: in vivo, late watergrass (Echinochloa oryzicola); details: for Herbicidal effect, A: late watergrass: amount of applied herbicide 320 g/ha
Summary of the method: (§1)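 Submerged Wagner pots (alluvial soil, 4 cm water) sown with weed seeds and planted with 2.5-leaf rice seedlings; emulsifiable concentrate diluted in water applied to water surface on sowing day. Held in greenhouse at 25-30 °C; injury scored 0-5 by herbicidal rate after three weeks.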

Japanese bulrush = test: Test Example 1: herbicidal activity, application before weed generation under submerged conditions (Table 16, symbol B); assay type: in vivo, Japanese bulrush (Schoenoplectus juncoides); details: for Herbicidal effect, B: Japanese bulrush: amount of applied herbicide 320 g/ha
Summary of the method: as §1

oval-leafed pondweed = test: Test Example 1: herbicidal activity, application before weed generation under submerged conditions (Table 16, symbol C); assay type: in vivo, oval-leafed pondweed (Monochoria vaginalis); details: for Herbicidal effect, C: oval-leafed pondweed: amount of applied herbicide 320 g/ha
Summary of the method: as §1

barnyard grass [1] = test: Test Example 3: herbicidal effect by foliage application, Wagner pot (Table 18, symbol H); assay type: in vivo, barnyard grass (Echinochloa crus-galli); details: for herbicidal effect on H: barnyard grass: amount of applied herbicide 320 g/ha
Summary of the method: (§2)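 Plants were sown in alluvial soil held under 0.1–0.5 cm standing water and grown 14 days in a greenhouse at 25–30 °C. An emulsifiable formulation, water-diluted to the set dose, was then sprayed onto the foliage, and effects were scored three weeks later using previously defined criteria.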

Chinese sprangletop = test: Test Example 3: herbicidal effect by foliage application, Wagner pot (Table 18, symbol D); assay type: in vivo, chinese sprangletop (Leptochloa chinensis); details: for herbicidal effect on D: Chinese sprangletop: amount of applied herbicide 320 g/ha
Summary of the method: as §2

rice flat sedge = test: Test Example 3: herbicidal effect by foliage application, Wagner pot (Table 18, symbol E); assay type: in vivo, rice flat sedge (Cyperus iria); details: for herbicidal effect on E: rice flat sedge: amount of applied herbicide 320 g/ha
Summary of the method: as §2

southern crabgrass = test: Test Example 5: herbicidal effect by foliage application, plastic box (Table 20, symbol F); assay type: in vivo, southern crabgrass (Digitaria ciliaris); details: for F: southern crabgrass, herbicidal effect grade: 320 g/ha, three weeks after application
Summary of the method: (§3)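 Post-emergence foliar test in sterilized diluvial soil. Compound applied as water-diluted emulsion at a predetermined rate to 14-day-old plants; evaluation at three weeks.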

green foxtail = test: Test Example 5: herbicidal effect by foliage application, plastic box (Table 20, symbol G); assay type: in vivo, green foxtail (Setaria viridis); details: for G: green foxtail, herbicidal effect grade: 320 g/ha, three weeks after application
Summary of the method: as §3

barnyard grass [2] = test: Test Example 5: herbicidal effect by foliage application, plastic box (Table 20, symbol H); assay type: in vivo, barnyard grass (Echinochloa crus-galli); details: for H: barnyard grass, herbicidal effect grade: 320 g/ha, three weeks after application
Summary of the method: as §3

wild oat = test: Test Example 5: herbicidal effect by foliage application, plastic box (Table 20, symbol I); assay type: in vivo, wild oat (Avena fatua); details: for I: wild oat, herbicidal effect grade: 320 g/ha, three weeks after application
Summary of the method: as §3

blackgrass = test: Test Example 5: herbicidal effect by foliage application, plastic box (Table 20, symbol J); assay type: in vivo, blackgrass (Alopecurus myosuroides); details: for J: blackgrass, herbicidal effect grade: 320 g/ha, three weeks after application
Summary of the method: as §3

Italian ryegrass = test: Test Example 5: herbicidal effect by foliage application, plastic box (Table 20, symbol K); assay type: in vivo, Italian ryegrass (Lolium multiflorum); details: for K: Italian ryegrass, herbicidal effect grade: 320 g/ha, three weeks after application
Summary of the method: as §3

windgrass = test: Test Example 5: herbicidal effect by foliage application, plastic box (Table 20, symbol L); assay type: in vivo, windgrass (Apera spica-venti); details: for L: windgrass, herbicidal effect grade: 320 g/ha, three weeks after application
Summary of the method: as §3

velvetleaf = test: Test Example 5: herbicidal effect by foliage application, plastic box (Table 20, symbol M); assay type: in vivo, velvetleaf (Abutilon theophrasti); details: for M: velvetleaf, herbicidal effect grade: 320 g/ha, three weeks after application
Summary of the method: as §3

redroot pigweed = test: Test Example 5: herbicidal effect by foliage application, plastic box (Table 20, symbol N); assay type: in vivo, redroot pigweed (Amaranthus retroflexus); details: for N: redroot pigweed, herbicidal effect grade: 320 g/ha, three weeks after application
Summary of the method: as §3

lambsquarters = test: Test Example 5: herbicidal effect by foliage application, plastic box (Table 20, symbol O); assay type: in vivo, lambsquarters (Chenopodium album); details: for O: lambsquarters, herbicidal effect grade: 320 g/ha, three weeks after application
Summary of the method: as §3

chickweed = test: Test Example 5: herbicidal effect by foliage application, plastic box (Table 20, symbol P); assay type: in vivo, common chickweed (Stellaria media); details: for P: chickweed, herbicidal effect grade: 320 g/ha, three weeks after application
Summary of the method: as §3

persian speedwell = test: Test Example 5: herbicidal effect by foliage application, plastic box (Table 20, symbol R); assay type: in vivo, Persian speedwell (Veronica persica); details: for R: persian speedwell, herbicidal effect grade: 320 g/ha, three weeks after application
Summary of the method: as §3

[3] = amount of applied herbicide 320 g/ha, foliage application after 14-day growth, evaluated three weeks after application
[4] = foliage application, AAH 320 g/ha, evaluated three weeks after application

Structure (SMILES) | Herbicidal effect, A: late watergrass (late watergrass) | Herbicidal effect, B: Japanese bulrush (Japanese bulrush) | Herbicidal effect, C: oval-leafed pondweed (oval-leafed pondweed) | herbicidal effect on H: barnyard grass (barnyard grass [1]) | herbicidal effect on D: Chinese sprangletop (Chinese sprangletop) | herbicidal effect on E: rice flat sedge (rice flat sedge) | F: southern crabgrass, herbicidal effect grade (southern crabgrass; foliage application) | G: green foxtail, herbicidal effect grade (green foxtail; foliage application) | H: barnyard grass, herbicidal effect grade (barnyard grass [2]; foliage application) | I: wild oat, herbicidal effect grade (wild oat; foliage application) | J: blackgrass, herbicidal effect grade (blackgrass; foliage application) | K: Italian ryegrass, herbicidal effect grade (Italian ryegrass; foliage application) | L: windgrass, herbicidal effect grade (windgrass; foliage application) | M: velvetleaf, herbicidal effect grade (velvetleaf; foliage application) | N: redroot pigweed, herbicidal effect grade (redroot pigweed; foliage application) | O: lambsquarters, herbicidal effect grade (lambsquarters; foliage application) | P: chickweed, herbicidal effect grade (chickweed; foliage application) | R: persian speedwell, herbicidal effect grade (persian speedwell; foliage application) | also measured
COc1ccccc1-c1sc2cc(F)ccc2c1-c1c(OC(=O)N2CCOCC2)c(C)nn(C)c1=O [3-025] | 0 (Herbicidal rate of 5% or less (almost no effect)) | 0 (Herbicidal rate of 5% or less (almost no effect)) | 3 (Herbicidal rate of 40% or more and less than 70%) | 3 (Herbicidal rate of 40% or more and less than 70%) | 0 (Herbicidal rate of 5% or less (almost no effect)) | 2 (Herbicidal rate of 20% or more and less than 40%) | 0 (Herbicidal rate of 5% or less (almost no effect)) | 0 (Herbicidal rate of 5% or less (almost no effect)) | 0 (Herbicidal rate of 5% or less (almost no effect)) | 0 (Herbicidal rate of 5% or less (almost no effect)) | 0 (Herbicidal rate of 5% or less (almost no effect)) | 0 (Herbicidal rate of 5% or less (almost no effect)) | 0 (Herbicidal rate of 5% or less (almost no effect)) | 0 (Herbicidal rate of 5% or less (almost no effect)) | 1 (Herbicidal rate of 5% or more and less than 20%) | 0 (Herbicidal rate of 5% or less (almost no effect)) | 3 (Herbicidal rate of 40% or more and less than 70%) | 0 (Herbicidal rate of 5% or less (almost no effect)) | 
COc1ccccc1-c1sc2cc(F)ccc2c1-c1c(OCC(=O)c2ccccc2)c(C)nn(C)c1=O [3-030] | 2 (Herbicidal rate of 20% or more and less than 40%) | 0 (Herbicidal rate of 5% or less (almost no effect)) | 3 (Herbicidal rate of 40% or more and less than 70%) | 4 (Herbicidal rate of 70% or more and less than 90%) | 2 (Herbicidal rate of 20% or more and less than 40%) | 0 (Herbicidal rate of 5% or less (almost no effect)) | 0 (Herbicidal rate of 5% or less (almost no effect)) | 1 (Herbicidal rate of 5% or more and less than 20%) | 0 (Herbicidal rate of 5% or less (almost no effect)) | 0 (Herbicidal rate of 5% or less (almost no effect)) | 3 (Herbicidal rate of 40% or more and less than 70%) | 0 (Herbicidal rate of 5% or less (almost no effect)) | 0 (Herbicidal rate of 5% or less (almost no effect)) | 3 (Herbicidal rate of 40% or more and less than 70%) | 3 (Herbicidal rate of 40% or more and less than 70%) | 1 (Herbicidal rate of 5% or more and less than 20%) | 3 (Herbicidal rate of 40% or more and less than 70%) | 0 (Herbicidal rate of 5% or less (almost no effect)) | 
Cc1nn(C)c(=O)c(-c2c(-c3cccc4c3OCC4)sc3c(Cl)cccc23)c1O [4-098] | 3 (Herbicidal rate of 40% or more and less than 70%) | 0 (Herbicidal rate of 5% or less (almost no effect)) | 0 (Herbicidal rate of 5% or less (almost no effect)) |  |  |  |  |  |  |  |  |  |  |  |  |  |  |  | herbicidal effect on barnyard grass (H) (barnyard grass [1]; 320 g/ha): 4 (Herbicidal rate of 70% or more and less than 90%); herbicidal effect on Chinese sprangletop (D) (Chinese sprangletop; 320 g/ha): 3 (Herbicidal rate of 40% or more and less than 70%); herbicidal effect on rice flat sedge (E) (rice flat sedge; 320 g/ha): 3 (Herbicidal rate of 40% or more and less than 70%); Herbicidal effect by foliage application, F: southern crabgrass (southern crabgrass; [3]): 3 (Herbicidal rate of 40% or more and less than 70%); Herbicidal effect by foliage application, G: green foxtail (green foxtail; [3]): 3 (Herbicidal rate of 40% or more and less than 70%); Herbicidal effect by foliage application, H: barnyard grass (barnyard grass [2]; [3]): 1 (Herbicidal rate of 5% or more and less than 20%); Herbicidal effect by foliage application, I: wild oat (wild oat; [3]): 0 (Herbicidal rate of 5% or less (almost no effect)); Herbicidal effect by foliage application, J: blackgrass (blackgrass; [3]): 0 (Herbicidal rate of 5% or less (almost no effect)); Herbicidal effect by foliage application, K: Italian ryegrass (Italian ryegrass; [3]): 0 (Herbicidal rate of 5% or less (almost no effect)); Herbicidal effect by foliage application, L: windgrass (windgrass; [3]): 2 (Herbicidal rate of 20% or more and less than 40%); Herbicidal effect by foliage application, M: velvetleaf (velvetleaf; [3]): 3 (Herbicidal rate of 40% or more and less than 70%); Herbicidal effect by foliage application, N: redroot pigweed (redroot pigweed; [3]): 3 (Herbicidal rate of 40% or more and less than 70%); Herbicidal effect by foliage application, O: lambsquarters (lambsquarters; [3]): 3 (Herbicidal rate of 40% or more and less than 70%); Herbicidal effect by foliage application, P: chickweed (chickweed; [3]): 5 (Herbicidal rate of 90% or more (almost completely withered)); Herbicidal effect by foliage application, R: persian speedwell (persian speedwell; [3]): 5 (Herbicidal rate of 90% or more (almost completely withered))
Cc1nn(C)c(=O)c(-c2c(-c3ccc(OC(F)F)cc3)sc3ccc(F)cc23)c1OCC(F)(F)F [2-302] |  |  |  | 3 (Herbicidal rate of 40% or more and less than 70%) | 0 (Herbicidal rate of 5% or less (almost no effect)) | 3 (Herbicidal rate of 40% or more and less than 70%) |  |  |  |  |  |  |  |  |  |  |  |  | Herbicidal effect on A: late watergrass (grade 0-5) (late watergrass; 320 g/ha applied herbicide): 3 (Herbicidal rate of 40% or more and less than 70%); Herbicidal effect on B: Japanese bulrush (grade 0-5) (Japanese bulrush; 320 g/ha applied herbicide): 0 (Herbicidal rate of 5% or less (almost no effect)); Herbicidal effect on C: oval-leafed pondweed (grade 0-5) (oval-leafed pondweed; 320 g/ha applied herbicide): 0 (Herbicidal rate of 5% or less (almost no effect)); F: southern crabgrass, herbicidal effect (criteria 0-5) (southern crabgrass; [4]): 0 (Herbicidal rate of 5% or less (almost no effect)); G: green foxtail, herbicidal effect (criteria 0-5) (green foxtail; [4]): 0 (Herbicidal rate of 5% or less (almost no effect)); H: barnyard grass, herbicidal effect (criteria 0-5) (barnyard grass [2]; [4]): 0 (Herbicidal rate of 5% or less (almost no effect)); I: wild oat, herbicidal effect (criteria 0-5) (wild oat; [4]): 0 (Herbicidal rate of 5% or less (almost no effect)); J: blackgrass, herbicidal effect (criteria 0-5) (blackgrass; [4]): 0 (Herbicidal rate of 5% or less (almost no effect)); K: Italian ryegrass, herbicidal effect (criteria 0-5) (Italian ryegrass; [4]): 0 (Herbicidal rate of 5% or less (almost no effect)); L: windgrass, herbicidal effect (criteria 0-5) (windgrass; [4]): 0 (Herbicidal rate of 5% or less (almost no effect)); M: velvetleaf, herbicidal effect (criteria 0-5) (velvetleaf; [4]): 0 (Herbicidal rate of 5% or less (almost no effect)); N: redroot pigweed, herbicidal effect (criteria 0-5) (redroot pigweed; [4]): 3 (Herbicidal rate of 40% or more and less than 70%); O: lambsquarters, herbicidal effect (criteria 0-5) (lambsquarters; [4]): 1 (Herbicidal rate of 5% or more and less than 20%); P: chickweed, herbicidal effect (criteria 0-5) (chickweed; [4]): 4 (Herbicidal rate of 70% or more and less than 90%); R: persian speedwell, herbicidal effect (criteria 0-5) (persian speedwell; [4]): 1 (Herbicidal rate of 5% or more and less than 20%)
COc1ccccc1-c1sc2cc(F)ccc2c1-c1c(OC(=O)SC(C)(C)C)c(C)nn(C)c1=O [3-026] | 2 (Herbicidal rate of 20% or more and less than 40%) | 0 (Herbicidal rate of 5% or less (almost no effect)) | 3 (Herbicidal rate of 40% or more and less than 70%) | 4 (Herbicidal rate of 70% or more and less than 90%) | 0 (Herbicidal rate of 5% or less (almost no effect)) | 2 (Herbicidal rate of 20% or more and less than 40%) | 0 (Herbicidal rate of 5% or less (almost no effect)) | 0 (Herbicidal rate of 5% or less (almost no effect)) | 0 (Herbicidal rate of 5% or less (almost no effect)) | 0 (Herbicidal rate of 5% or less (almost no effect)) | 0 (Herbicidal rate of 5% or less (almost no effect)) | 0 (Herbicidal rate of 5% or less (almost no effect)) | 0 (Herbicidal rate of 5% or less (almost no effect)) | 0 (Herbicidal rate of 5% or less (almost no effect)) | 5 (Herbicidal rate of 90% or more (almost completely withered)) | 1 (Herbicidal rate of 5% or more and less than 20%) | 0 (Herbicidal rate of 5% or less (almost no effect)) | 0 (Herbicidal rate of 5% or less (almost no effect)) | 
